Experimental data published in ChEMBL document CHEMBL1154426, “In vitro susceptibilities of Mycoplasma putrefaciens field isolates” (2007).
In brackets after ≈: the same amount, converted by molar mass.

Tests used:
Type in all cases: functional
[1] = tested on: Mycoplasma putrefaciens; experiment: Antimicrobial activity against Mycoplasma putrefaciens KS1 after 24 hrs by twofold serial dilution method
[2] = tested on: Mycoplasma putrefaciens; experiment: Antimicrobial activity against Mycoplasma putrefaciens Jordanian isolates after 24 hrs by twofold serial dilution method
[3] = tested on: Mycoplasma putrefaciens; experiment: Antimicrobial activity against Mycoplasma putrefaciens French isolates after 24 hrs by twofold serial dilution method

Row | Compound | MIC ([1]; KS1, 24 h) | MIC50 [2] | MIC90 [2] | MIC50 [3] | MIC90 [3] | MIC [1]
1 | O=C(N[C@H](CO)[C@H](O)c1ccc([N+](=O)[O-])cc1)C(Cl)Cl [CHLORAMPHENICOL] | 4 µg/mL (≈ 12.4 µM) | 2 µg/mL (≈ 6.19 µM) | 4 µg/mL (≈ 12.4 µM) | 4 µg/mL (≈ 12.4 µM) | 4 µg/mL (≈ 12.4 µM) | 
2 | CN(C)[C@@H]1C(O)=C(C(N)=O)C(=O)[C@@]2(O)C(O)=C3C(=O)c4c(O)ccc(Cl)c4[C@@](C)(O)[C@H]3C[C@@H]12 [CHLORTETRACYCLINE] | 4 µg/mL (≈ 8.35 µM) | 4 µg/mL (≈ 8.35 µM) | 4 µg/mL (≈ 8.35 µM) | 8 µg/mL (≈ 16.7 µM) | 16 µg/mL (≈ 33.4 µM) | 
3 | O=C(O)c1cn(C2CC2)c2cc(N3CCNCC3)c(F)cc2c1=O [CIPROFLOXACIN] | 0.25 µg/mL (≈ 0.754 µM) | 0.25 µg/mL (≈ 0.754 µM) | 0.25 µg/mL (≈ 0.754 µM) | 0.25 µg/mL (≈ 0.754 µM) | 0.5 µg/mL (≈ 1.51 µM) | 
4 | C[C@H]1c2cccc(O)c2C(=O)C2=C(O)[C@]3(O)C(=O)C(C(N)=O)=C(O)[C@@H](N(C)C)[C@@H]3[C@@H](O)[C@@H]21.O [DOXYCYCLINE] | 0.03 µg/mL | 0.125 µg/mL | 0.25 µg/mL | 0.25 µg/mL | 2 µg/mL | 
5 | CCN1CCN(c2cc3c(cc2F)c(=O)c(C(=O)O)cn3C2CC2)CC1 [ENROFLOXACIN] | 0.125 µg/mL (≈ 0.348 µM) | 0.125 µg/mL (≈ 0.348 µM) | 0.125 µg/mL (≈ 0.348 µM) | 0.125 µg/mL (≈ 0.348 µM) | 0.25 µg/mL (≈ 0.696 µM) | 
6 | CC[C@H]1OC(=O)[C@H](C)[C@@H](O[C@H]2C[C@@](C)(OC)[C@@H](O)[C@H](C)O2)[C@H](C)[C@@H](O[C@@H]2O[C@H](C)C[C@H](N(C)C)[C@H]2O)[C@](C)(O)C[C@@H](C)C(=O)[C@H](C)[C@@H](O)[C@]1(C)O [ERYTHROMYCIN] | 0.03 µg/mL (≈ 0.0409 µM) | 0.03 µg/mL (≈ 0.0409 µM) | 0.03 µg/mL (≈ 0.0409 µM) | 0.03 µg/mL (≈ 0.0409 µM) | 0.125 µg/mL (≈ 0.17 µM) | 
7 | CCC[C@@H]1C[C@@H](C(=O)N[C@@H]([C@H]2O[C@H](SC)[C@H](O)[C@@H](O)[C@H]2O)[C@@H](C)O)N(C)C1 [LINCOMYCIN] | 1 µg/mL (≈ 2.46 µM) | 0.5 µg/mL (≈ 1.23 µM) | 1 µg/mL (≈ 2.46 µM) | 1 µg/mL (≈ 2.46 µM) | 2 µg/mL (≈ 4.92 µM) | 
8 | CCn1cc(C(=O)O)c(=O)c2ccc(C)nc21 [NALIDIXIC ACID] | 512 µg/mL (≈ 2200 µM) | > 256 µg/mL | > 256 µg/mL | > 256 µg/mL | > 256 µg/mL | 
9 | CCn1cc(C(=O)O)c(=O)c2cc(F)c(N3CCNCC3)cc21 [NORFLOXACIN] | 2 µg/mL (≈ 6.26 µM) | 2 µg/mL (≈ 6.26 µM) | 2 µg/mL (≈ 6.26 µM) | 2 µg/mL (≈ 6.26 µM) | 4 µg/mL (≈ 12.5 µM) | 
10 | CN(C)[C@@H]1C(O)=C(C(N)=O)C(=O)[C@@]2(O)C(O)=C3C(=O)c4c(O)cccc4[C@@](C)(O)[C@H]3[C@H](O)[C@@H]12 [OXYTETRACYCLINE] | 0.5 µg/mL (≈ 1.09 µM) | 0.5 µg/mL (≈ 1.09 µM) | 0.5 µg/mL (≈ 1.09 µM) | 1 µg/mL (≈ 2.17 µM) | 4 µg/mL (≈ 8.69 µM) | 
11 | CN[C@@H]1[C@H](O)[C@H](NC)[C@H]2O[C@@]3(O)C(=O)C[C@@H](C)O[C@H]3O[C@@H]2[C@H]1O [SPECTINOMYCIN] | 32 µg/mL (≈ 96.3 µM) | 16 µg/mL (≈ 48.1 µM) | 32 µg/mL (≈ 96.3 µM) | 16 µg/mL (≈ 48.1 µM) | 16 µg/mL (≈ 48.1 µM) | 
12 | CN[C@@H]1[C@H](O[C@H]2[C@H](O[C@H]3[C@H](O)[C@@H](O)[C@H](N=C(N)N)[C@@H](O)[C@@H]3N=C(N)N)O[C@@H](C)[C@]2(O)C=O)O[C@@H](CO)[C@H](O)[C@H]1O [STREPTOMYCIN] | 64 µg/mL (≈ 110 µM) | 32 µg/mL (≈ 55 µM) | 32 µg/mL (≈ 55 µM) | 32 µg/mL (≈ 55 µM) | 64 µg/mL (≈ 110 µM) | 
13 | CC[C@H]1OC(=O)C[C@@H](O)[C@H](C)[C@@H](O[C@@H]2O[C@H](C)[C@@H](O[C@H]3C[C@@](C)(O)[C@@H](O)[C@H](C)O3)[C@H](N(C)C)[C@H]2O)[C@@H](CC=O)C[C@@H](C)C(=O)/C=C/C(C)=C/[C@@H]1CO[C@@H]1O[C@H](C)[C@@H](O)[C@@H](OC)[C@H]1OC [TYLOSIN] | 0.06 µg/mL (≈ 0.0655 µM) | 0.015 µg/mL (≈ 0.0164 µM) | 0.015 µg/mL (≈ 0.0164 µM) | 0.03 µg/mL (≈ 0.0327 µM) | 0.06 µg/mL (≈ 0.0655 µM) | 
14 | GENTAMICIN |  | 32 µg/mL | 32 µg/mL | 64 µg/mL | 64 µg/mL | 64 µg/mL
15 | SPIRAMYCIN |  | 0.125 µg/mL | 0.25 µg/mL | 0.25 µg/mL | 0.5 µg/mL | 0.25 µg/mL
